Measured values from patent publication US20230078913A1, “ANDROGEN RECEPTOR MODULATORS AND METHODS FOR USE AS PROTEOLYSIS TARGETING CHIMERA LIGANDS” (ESSA Pharma, Inc., priority 2019, published 2023).

System: androgen receptor (androgen-induced PSA-luciferase activity in LNCaP cells)
Assay: Androgen-induced PSA (6.1 kb)-luciferase reporter assay in LNCaP cells
Type: cell-based
Details: Homo sapiens; LNCaP cells transiently transfected with PSA (6.1 kb)-luciferase reporter; R1881 (1 nM), 24 h; normalized to maximum androgen-induced activity (vehicle only)
Method: To determine the IC50, treatments were normalized to the maximum activity with androgen-induction (in the absence of test compounds, vehicle only) (Table 1).
Luciferase Assay: Lysates were thawed on ice then collected into V-bottom 96-well tissue culture plates. Lysates were centrifuged at 4° C. for 5 minutes at 4000 rpm. To measure luminescence of LNCaP cell lysates the Firefly Luciferase Assay System (Promega) was employed, according to manufacturer's protocol.
Comparisons between treatment and control groups were compared using Two-Way ANOVA with post-hoc Dunnett's and Tukey's tests. Differences were considered statistically significant at P values less than 0.05. Densitometric quantification of relative AR levels was determined by Image.

C[C@H](Oc1ccc(C(C)(C)c2cc(Cl)c(OCCCl)c(C#N)c2)cc1)c1ccnc(NS(C)(=O)=O)n1 [Example A170]
IC50: 651 nM
